Columns and labels:
Adrenergic α1B = Adrenergic α1B (Rattus norvegicus, UniProt P15823); experiment: Eurofins Hit Profiling Screen; format: binding; conditions: 10 μmol/L
[1] = tested on: NASH-induced liver disease; experiment: NASH-induced liver disease (streptozotocin/high fat diet, STAM); format: in vivo, C57/BL6 mice
Method: Pellet then underwent acid hydrolysis in 6 mol/L HCl at 100°C for 24 hours. Hydroxyproline and crosslinks were extracted from the hydrolysate using an automated solid phase extraction system (Gilson […] system). After extraction and drying, hydroxyproline and crosslinks were analysed by UHPLC-ESI-MS/MS on a Thermo Dionex UHPLC and TSQ Endura triple quad mass spectrometer. Total protein was quantified in the samples using a commercially available kit (QuickZyme Biosciences, Leiden, The Netherlands). For detailed procedures, see supporting information. The study was performed by Stelic MC, Inc. (Tokyo, Japan) with approval from local ethics committee. NASH was established in male C57/BL6 mice by a single subcutaneous injection of 200 μg streptozotocin (Sigma-Aldrich) after birth and with a high fat diet (CLEA Japan) ad libitum after 4 weeks of age (day 28 ± 2) until 14 weeks of age. Mice were orally administered with 10 mg/kg PXS-5153A once daily from 8 to 14 weeks of age. ALT levels were assessed in the plasma. One lobe of the liver tissue was fixed in 10% formalin, stained for Sirius red and the percentage coverage area was measured; HE staining was performed to estimate non-alcoholic fatty liver disease (NAFLD) activity score according to the criteria of Kleiner et al28 The remainder of the liver was snap frozen and used for protein, hydroxyproline and crosslink analysis.

Recombinant rat LOXL2 = molecular target: T1, Recombinant rat LOXL2 (Rattus norvegicus, UniProt B5DF27); experiment: Amplex-Red fluorometric enzymatic activity assay, recombinant rat LOXL2; format: biochemical; conditions: 30 minute pre-incubation; average of at least three experiments
T1 construct: made in house; host or cells: HEK-293 clones provided by Dr. Fernando Rodríguez Pascual
T1 sequence (B5DF27 26-776): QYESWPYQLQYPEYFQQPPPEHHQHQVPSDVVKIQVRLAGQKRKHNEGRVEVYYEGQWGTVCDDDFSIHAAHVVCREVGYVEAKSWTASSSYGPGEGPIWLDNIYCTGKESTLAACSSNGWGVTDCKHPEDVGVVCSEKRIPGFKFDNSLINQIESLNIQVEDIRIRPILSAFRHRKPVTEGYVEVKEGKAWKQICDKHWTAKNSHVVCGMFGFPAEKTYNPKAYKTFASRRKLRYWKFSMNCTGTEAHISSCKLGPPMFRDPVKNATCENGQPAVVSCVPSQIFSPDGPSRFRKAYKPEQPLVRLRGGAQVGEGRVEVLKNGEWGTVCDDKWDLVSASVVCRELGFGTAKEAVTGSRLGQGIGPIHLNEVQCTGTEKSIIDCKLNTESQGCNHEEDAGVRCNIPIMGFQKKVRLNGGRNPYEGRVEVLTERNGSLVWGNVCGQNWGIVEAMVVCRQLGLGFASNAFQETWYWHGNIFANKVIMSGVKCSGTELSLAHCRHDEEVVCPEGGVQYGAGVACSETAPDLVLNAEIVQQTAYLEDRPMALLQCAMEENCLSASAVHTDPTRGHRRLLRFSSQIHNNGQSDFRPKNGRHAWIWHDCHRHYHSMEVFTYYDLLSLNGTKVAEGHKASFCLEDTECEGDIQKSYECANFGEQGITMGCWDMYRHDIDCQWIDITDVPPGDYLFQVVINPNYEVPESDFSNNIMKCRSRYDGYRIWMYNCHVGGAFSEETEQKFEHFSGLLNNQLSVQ
Method: (§1) The measurement of the enzymatic activity of all lysyl oxidase family members was based on the detection of hydrogen peroxide with an Amplex‐Red oxidation assay, as described in Zhou et al26 Recombinant human semicarbazide sensitive amine oxidase (SSAO/VAP1), diamine oxidase (DAO) and monoamine oxidases A and B (MAO‐A and MAO‐B) assays were performed as previously described.27 For detailed enzymatic procedures, see supporting information.
(§2) The measurement of the enzymatic activity of all lysyl oxidase family members was based on the detection of hydrogen peroxide with an Amplex-Red oxidation assay, as described in Zhou et al.[1]; miniaturised in 384 well format, with the appropriate combination of substrate and assay buffer for each individual enzyme. After a 30 minute pre-incubation of the enzyme at 37 °C with the test compound (or with different incubation times for the time-dependency assay), one volume of reaction mixture containing 120 μM Amplex Red (AR) (Life Technologies), 1.5 U/mL horseradish peroxidase (HRP) (Sigma-Aldrich) and the specific substrate was added to each sample. The relative fluorescence units (RFU) were then measured every 2.5 minutes for 30 minutes at 37°C, excitation 565 nm and emission 590, on a BMG Clariostar Microplate Reader. […]

LOXL2 = molecular target: T2, LOXL2 (Homo sapiens, UniProt Q9Y4K0); experiment: Time dependency of LOXL2 inhibition; format: biochemical
T2 sequence (Q9Y4K0 26-774): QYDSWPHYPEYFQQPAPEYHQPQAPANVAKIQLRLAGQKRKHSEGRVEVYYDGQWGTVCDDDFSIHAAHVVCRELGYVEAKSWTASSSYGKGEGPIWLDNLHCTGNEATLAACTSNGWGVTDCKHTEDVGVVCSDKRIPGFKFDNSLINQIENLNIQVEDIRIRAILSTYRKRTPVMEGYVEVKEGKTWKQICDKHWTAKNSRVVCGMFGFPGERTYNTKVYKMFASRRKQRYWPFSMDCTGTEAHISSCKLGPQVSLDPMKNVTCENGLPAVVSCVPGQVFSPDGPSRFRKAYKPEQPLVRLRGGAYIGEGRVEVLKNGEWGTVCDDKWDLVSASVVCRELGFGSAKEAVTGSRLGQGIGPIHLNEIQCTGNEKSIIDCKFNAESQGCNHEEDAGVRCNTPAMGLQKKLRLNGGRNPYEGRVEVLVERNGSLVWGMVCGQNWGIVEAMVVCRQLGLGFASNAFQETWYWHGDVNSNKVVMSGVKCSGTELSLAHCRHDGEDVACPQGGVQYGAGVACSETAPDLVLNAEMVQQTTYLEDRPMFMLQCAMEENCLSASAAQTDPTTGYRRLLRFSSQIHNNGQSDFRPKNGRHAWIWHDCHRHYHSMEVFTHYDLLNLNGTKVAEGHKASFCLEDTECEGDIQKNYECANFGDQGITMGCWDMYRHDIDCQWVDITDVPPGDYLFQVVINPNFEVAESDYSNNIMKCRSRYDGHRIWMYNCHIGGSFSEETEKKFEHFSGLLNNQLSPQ
Method: The measurement of the enzymatic activity of all lysyl oxidase family members was based on the detection of hydrogen peroxide with an Amplex-Red oxidation assay, as described in Zhou et al.[1]; miniaturised in 384 well format, with the appropriate combination of substrate and assay buffer for each individual enzyme. After a 30 minute pre-incubation of the enzyme at 37 °C with the test compound (or with different incubation times for the time-dependency assay), one volume of reaction mixture containing 120 μM Amplex Red (AR) (Life Technologies), 1.5 U/mL horseradish peroxidase (HRP) (Sigma-Aldrich) and the specific substrate was added to each sample. The relative fluorescence units (RFU) were then measured every 2.5 minutes for 30 minutes at 37°C, excitation 565 nm and emission 590, on a BMG Clariostar Microplate Reader. All the substrates were used at concentrations corresponding to their Km towards the corresponding enzyme, or with a range of different concentrations for the substrate competition experiments.
Time-dependent inhibition of the target by the compound was assessed by pre-incubation of 25 uL of target enzyme at 37 °C in a 384-well plate. An 11-point dilution was carried out of the test compound followed by its addition at 0.5 uL to the enzyme plate at different time points (0 minutes, 15 minutes, 30 minutes, 1hour, 2 hours and 4 hours unless otherwise stated in the graph). At the last time point, the reaction mixture was added and the relative fluorescence was measured.

Recombinant human LOXL3 = molecular target: T3, Recombinant human LOXL3 (Homo sapiens, UniProt P58215); experiment: Amplex-Red fluorometric enzymatic activity assay, recombinant human LOXL3; format: biochemical; conditions: 30 minute pre-incubation; average of at least three experiments
T3 construct: purchased R&D Systems
T3 sequence (P58215 26-753): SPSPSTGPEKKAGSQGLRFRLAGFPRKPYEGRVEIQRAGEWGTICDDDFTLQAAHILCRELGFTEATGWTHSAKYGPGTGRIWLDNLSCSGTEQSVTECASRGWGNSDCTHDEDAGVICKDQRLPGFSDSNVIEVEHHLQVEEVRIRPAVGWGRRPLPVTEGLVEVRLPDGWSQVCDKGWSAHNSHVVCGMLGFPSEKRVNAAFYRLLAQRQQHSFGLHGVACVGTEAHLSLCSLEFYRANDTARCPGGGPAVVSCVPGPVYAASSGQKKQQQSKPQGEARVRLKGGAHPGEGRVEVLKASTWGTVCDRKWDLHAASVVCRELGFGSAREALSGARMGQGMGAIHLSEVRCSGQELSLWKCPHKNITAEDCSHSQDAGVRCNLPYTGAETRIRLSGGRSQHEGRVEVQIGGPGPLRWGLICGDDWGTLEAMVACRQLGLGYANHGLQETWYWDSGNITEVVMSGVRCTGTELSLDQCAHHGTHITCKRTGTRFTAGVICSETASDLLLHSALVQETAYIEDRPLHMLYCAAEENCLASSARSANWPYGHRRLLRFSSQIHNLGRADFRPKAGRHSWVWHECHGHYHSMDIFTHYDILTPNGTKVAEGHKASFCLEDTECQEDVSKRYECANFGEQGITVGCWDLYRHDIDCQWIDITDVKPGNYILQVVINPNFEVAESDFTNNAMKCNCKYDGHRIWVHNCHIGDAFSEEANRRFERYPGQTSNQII
Method: as §1, §2

[2] = molecular target: Recombinant human semicarbazide sensitive amine oxidase (SSAO/VAP1) (Homo sapiens, UniProt Q16853); experiment: SSAO/VAP1 enzymatic activity assay; format: biochemical
Recombinant human semicarbazide sensitive amine oxidase (SSAO/VAP1), sequence (Q16853 whole entry): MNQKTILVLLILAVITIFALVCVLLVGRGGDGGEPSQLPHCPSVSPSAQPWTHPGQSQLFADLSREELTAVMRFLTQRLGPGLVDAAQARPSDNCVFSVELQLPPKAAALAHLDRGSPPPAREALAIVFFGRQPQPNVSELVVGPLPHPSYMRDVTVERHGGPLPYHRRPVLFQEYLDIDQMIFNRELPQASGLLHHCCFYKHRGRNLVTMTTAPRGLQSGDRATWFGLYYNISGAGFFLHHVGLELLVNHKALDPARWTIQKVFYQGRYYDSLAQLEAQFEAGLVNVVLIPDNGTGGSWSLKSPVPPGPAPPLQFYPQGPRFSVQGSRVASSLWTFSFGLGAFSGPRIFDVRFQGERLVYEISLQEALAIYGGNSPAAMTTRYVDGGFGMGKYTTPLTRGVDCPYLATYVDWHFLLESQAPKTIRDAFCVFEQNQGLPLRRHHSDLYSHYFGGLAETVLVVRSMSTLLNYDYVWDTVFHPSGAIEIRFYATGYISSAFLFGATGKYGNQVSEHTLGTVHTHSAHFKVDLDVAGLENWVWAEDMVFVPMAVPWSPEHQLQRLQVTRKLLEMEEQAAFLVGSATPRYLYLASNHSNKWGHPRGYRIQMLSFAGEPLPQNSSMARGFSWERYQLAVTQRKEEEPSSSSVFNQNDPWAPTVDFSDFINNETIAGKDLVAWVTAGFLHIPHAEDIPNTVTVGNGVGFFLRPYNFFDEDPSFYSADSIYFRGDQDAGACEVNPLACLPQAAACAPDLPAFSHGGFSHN
Method: as §1
Recombinant human semicarbazide sensitive amine oxidase (SSAO/VAP1), diamine oxidase (DAO) and monoamine oxidases A and B (MAO-A and MAO-B) assays were performed as previously described.

Adrenergic α1B, sequence (P15823 whole entry): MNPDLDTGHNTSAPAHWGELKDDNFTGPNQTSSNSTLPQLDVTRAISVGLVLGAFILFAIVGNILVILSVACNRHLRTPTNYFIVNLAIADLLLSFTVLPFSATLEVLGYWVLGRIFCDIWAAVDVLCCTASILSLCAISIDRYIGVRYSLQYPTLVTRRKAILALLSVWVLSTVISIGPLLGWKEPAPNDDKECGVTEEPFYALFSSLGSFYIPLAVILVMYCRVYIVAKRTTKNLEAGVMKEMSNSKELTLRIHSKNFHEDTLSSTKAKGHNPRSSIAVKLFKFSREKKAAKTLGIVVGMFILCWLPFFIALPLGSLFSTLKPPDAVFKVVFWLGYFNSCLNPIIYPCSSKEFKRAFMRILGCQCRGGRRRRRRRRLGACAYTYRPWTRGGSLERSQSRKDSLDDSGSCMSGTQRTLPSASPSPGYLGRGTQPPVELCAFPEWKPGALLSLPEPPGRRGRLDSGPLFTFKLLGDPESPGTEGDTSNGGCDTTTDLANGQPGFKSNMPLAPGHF

Structure (SMILES): Cc1c(-c2cccc(S(=O)(=O)N(C)C)c2)c2ncccc2n1C/C(F)=C/CN.Cl.Cl [PXS-5153A]
- % inhibition (Adrenergic α1B): 6%
- DHLNL ([1]; 10 mg/kg orally once daily): significantly reduced
- NASH disease score (NAFLD activity score) ([1]; 10 mg/kg orally once daily): reduction
- PYD ([1]; 10 mg/kg orally once daily): significantly reduced
- hepatocyte ballooning ([1]; 10 mg/kg orally once daily): significantly reduced
- percentage coverage area by Picrosirius red staining ([1]; 10 mg/kg orally once daily): reduced
- HYP ([1]; 10 mg/kg orally once daily from 8 to 14 weeks of age): significantly reduction
- IC50 (Recombinant rat LOXL2): 0.015 µM
- pIC50 ± SD (Recombinant rat LOXL2): 7.8 ± 0
- time to complete inhibition of the enzyme (LOXL2; at 10xIC50): ≤ 15 min
- time until enzymatic activity almost entirely blocked (LOXL2; judged by the shift in the concentration response curves): ≤ 15 min
- time-dependent LOXL2 inhibition (LOXL2; longer incubation with the enzyme): increased potency upon longer incubation with the enzyme
- IC50 (Recombinant human LOXL3): 0.063 µM
- pIC50 ± SD (Recombinant human LOXL3): 7.2 ± 0.23
- IC50 [2]: > 30 µM

From PMC6378217, “The lysyl oxidase like 2/3 enzymatic inhibitor, PXS‐5153A, reduces crosslinks and ameliorates fibrosis” (Journal of Cellular and Molecular Medicine, 2018)
